Results from patent US7285683B2, “Bicyclic and tricyclic cannabinoids” (University of Connecticut, priority 2001, dated 2007).
Where two headings read alike, the source gives them in different places.

What was measured:
CB1 cannabinoid receptor = molecular target: T1, CB1 cannabinoid receptor (Rattus norvegicus, UniProt P20272); test: CB1 receptor binding assay, [3H] CP-55,940 displacement, rat forebrain membranes
T1 construct: membranes were prepared from rat forebrain membranes; from tissue; host or cells: rat forebrain
T1 sequence (P20272 whole entry): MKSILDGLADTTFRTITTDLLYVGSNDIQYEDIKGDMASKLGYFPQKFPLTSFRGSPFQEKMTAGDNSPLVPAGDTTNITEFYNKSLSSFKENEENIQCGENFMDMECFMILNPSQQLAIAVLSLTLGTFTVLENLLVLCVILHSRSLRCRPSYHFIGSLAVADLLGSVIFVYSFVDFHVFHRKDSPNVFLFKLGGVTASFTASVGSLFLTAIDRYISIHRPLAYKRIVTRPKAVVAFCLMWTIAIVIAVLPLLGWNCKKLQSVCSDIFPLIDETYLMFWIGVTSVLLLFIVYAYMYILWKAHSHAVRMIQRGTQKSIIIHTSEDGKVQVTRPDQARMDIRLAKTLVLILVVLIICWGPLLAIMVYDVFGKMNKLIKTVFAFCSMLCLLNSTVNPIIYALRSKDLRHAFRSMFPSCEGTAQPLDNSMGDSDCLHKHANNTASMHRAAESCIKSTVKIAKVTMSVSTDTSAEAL
Description: Some inventive analogs were tested for CB2 receptor binding affinity and for CB1 receptor affinity (to determine selectivity). As used herein, “binding affinity” is represented by the IC50 value which is the concentration of an analog required to occupy the 50% of the total number (Bmax) of the receptors. The lower the IC50 value the higher the binding affinity. […] For the CB1 receptor binding studies, membranes were prepared from rat forebrain membranes according to the procedure of P. R. Dodd et al, A Rapid Method for Preparing Synaptosomes: Comparison with Alternative Procedures, Brain Res., 107-118 (1981). The binding of the novel analogues to the CB1 cannabinoid receptor was assessed as described in W. A. Devane et al, Determination and Characterization of a Cannabinoid Receptor in a Rat Brain, Mol. Pharmacol., 34, 605-613 (1988) and A. Charalambous et al, 5′-azido Δ^8- THC: A Novel Photoaffinity Label for the Cannabinoid Receptor, J. Med. Chem., 35, 3076-3079 (1992) with the following changes. The above articles are incorporated by reference herein.
Membranes, previously frozen at −80° C., were thawed on ice. To the stirred suspension was added three volumes of TME (25 mM Tris-HCl buffer, 5 mM MgCl2 and 1 mM EDTA) at a pH 7.4. The suspension was incubated at 4° C. for 30 min. At the end of the incubation, the membranes were pelleted and washed three times with TME.
The treated membranes were subsequently used in the binding assay described below. Approximately 30 μg of membranes were incubated in silanized 96-well microtiter plate with TME containing 0.1% essentially fatty acid-free bovine serum albumin (BSA), 0.8 nM [^3H] CP-55,940, and various concentrations of test materials in a final volume of 200 μL. The assays were incubated for 1 hour at 30° C. and then immediately filtered using Packard Filtermate 196 harvester and Whatman GF/C filterplates and washed with wash buffer (TME) containing 0.5% BSA. Radioactivity was detected using MicroScint 20 scintillation cocktail added directly to the dried filterplates, and the filterplates were counted using a Packard Instruments Top-Count. Nonspecific binding was assessed using 100 nM CP-55,940. Data collected from three independent experiments performed with duplicate determinations was normalized between 100% and 0% specific binding for [^3H] CP-55,940, determined using buffer and 100 nM CP-55,940. The normalized data was analyzed using a 4-parameter nonlinear logistic equation to yield IC50 values. Data from at least two independent experiments performed in duplicate was used to calculate IC50 values which were converted to Ki values using the assumptions of Cheng et al, Relationship Between the Inhibition Constant (Ki) and the concentration of Inhibitor which causes 50% Inhibition (IC50) of an Enzymatic Reaction, Biochem. Pharmacol., 22, 3099-3102, (1973), which is incorporated by reference herein.

CB2 receptor = molecular target: T2, CB2 receptor (Mus musculus, UniProt P47936); test: CB2 receptor binding assay, [3H] CP-55,940 displacement, mouse spleen membranes
T2 construct: membranes were prepared from frozen mouse spleen; from tissue; host or cells: mouse spleen
T2 sequence (P47936 whole entry): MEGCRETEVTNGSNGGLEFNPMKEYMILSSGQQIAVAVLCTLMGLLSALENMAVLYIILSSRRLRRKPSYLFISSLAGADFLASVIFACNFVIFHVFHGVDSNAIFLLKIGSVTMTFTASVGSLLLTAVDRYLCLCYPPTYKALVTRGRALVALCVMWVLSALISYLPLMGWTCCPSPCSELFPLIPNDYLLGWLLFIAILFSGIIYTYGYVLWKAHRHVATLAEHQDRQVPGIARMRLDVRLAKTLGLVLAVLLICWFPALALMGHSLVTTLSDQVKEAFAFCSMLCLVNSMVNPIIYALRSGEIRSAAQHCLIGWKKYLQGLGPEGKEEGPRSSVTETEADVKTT

[1] = Table 1, bicyclic-cannabinoid analogs, rat forebrain membranes, 0.8 nM [3H] CP-55,940, read-out: Ki in nM for the CB1 Receptor

C#CCCCCC(C)(C)c1cc(O)c2c(c1)OC(C)(C)[C@@H]1CC[C@H](O)C[C@@H]21 [Compound 6e, 6a,7,8,9,10,10a-Hexahydro-3-(1′,1′-dimethylhept-6′-ynyl)-6,6-dimethyl-6H-dibenzo[b,d]pyran-1,9α-diol]
Ki (CB1 cannabinoid receptor; Table 2, hexahydrocannabinol analogs, rat forebrain membranes, 0.8 nM [3H] CP-55,940, read-out: Ki in nM for the CB1 Receptor): 11.3 nM
Ki (CB2 receptor): 12 nM

CC(C)(CCCCCCBr)c1cc(O)c([C@@H]2CC(=O)[C@@H]3C[C@H]2C3(C)C)c(O)c1 [Compound 2d, (4R)4-[4-(7′-bromo-1′,1′-dimethylheptyl)-2,6-dihydroxyphenyl]-6,6-dimethyl-2-norpinanone]
Ki (CB1 cannabinoid receptor): 10.6 nM
Ki (CB2 receptor): 9.3 nM

C#CCCCCC(C)(C)c1cc(O)c([C@@H]2CC(=O)[C@@H]3C[C@H]2C3(C)C)c(O)c1 [Compound 2e, (4R)-4-[4-(1′,1′-dimethylhept-6′-ynyl)-2,6-dihydroxyphenyl]-6,6-dimethyl-2-norpinanone]
Ki (CB1 cannabinoid receptor): 30.8 nM
Ki (CB2 receptor): 0.2 nM

C#CCCCCC(C)(C)c1cc(O)c2c(c1)OC(C)(C)[C@@H]1CCC(=O)C[C@@H]21 [Compound 4e, (−)-trans-3-(1′,1′-dimethylhept-6′-ynyl)-6,6a,7,8,10,10a-hexahydro-1-hydroxy-6,6-dimethyl-9H-dibenzo[b,d]pyran-9-one]
Ki (CB1 cannabinoid receptor): 10.7 nM
Ki (CB2 receptor): 4.1 nM

CC(C)(CCCCC=CI)c1cc(O)c2c(c1)OC(C)(C)[C@@H]1CC[C@@H](N=[N+]=[N-])C[C@@H]21 [Compound 9, 1-Hydroxy-3-(7′-iodo-1′,1′-dimethylhept-6′-enyl)-6,6-dimethyl-9β-azido-6a,7,8,8,10,10a-hexahydro-6H-dibenzo[b,d]pyran]
Ki (CB1 cannabinoid receptor): 0.7 nM
Ki (CB2 receptor): 0.7 nM

CC(C)(CCCCCCBr)c1cc(O)c2c(c1)OC(C)(C)[C@@H]1CC[C@@H](N=[N+]=[N-])C[C@@H]21 [Compound 7d, 1-Hydroxy-3-(7′-bromo-1′,1′-dimethylheptyl)-6,6-dimethyl-9β-azido-6a,7,8,8,10,10a-hexahydro-6H-dibenzo[b,d]pyran]
Ki (CB1 cannabinoid receptor): 1.6 nM
Ki (CB2 receptor): 13.7 nM

CCCCCCC1(c2cc(O)c([C@@H]3CC(O)[C@@H]4C[C@H]3C4(C)C)c(O)c2)SCCS1 (stereo partly drawn) [Compound 3, (4R)4-[4-(2-hexyl-1,3-dithiolan-2-yl)-2,6-dihydroxyphenyl]-6,6-dimethyl-2β-norpinanol and (4R)-4-[4-(2-hexyl-1,3-dithiolan-2-yl)-2,6-dihydroxyphenyl]-6,6-dimethyl-2α-norpinanol]
Ki (CB1 cannabinoid receptor; [1]): 133 nM
Ki (CB2 receptor): 76.8 nM

CCCCC=CC1(c2cc(O)c3c(c2)OC(C)(C)[C@@H]2CCC(=O)C[C@@H]32)CCCC1 [Compound 4b, (−)-trans-3-(1′,1′-cyclopentylhept-2′-enyl)-6,6a,7,8,10,10a-hexahydro-1-hydroxy-6,6-dimethyl-9H-dibenzo[b,d]pyran-9-one]
Ki (CB1 cannabinoid receptor): 0.2 nM
Ki (CB2 receptor): 0.2 nM

CC(C)(CCCCCCI)c1cc(O)c2c(c1)OC(C)(C)[C@@H]1CC[C@@H](N=[N+]=[N-])C[C@@H]21 [Compound 8, 1-Hydroxy-3-(7′-iodo-1′,1′-dimethylheptyl)-6,6-dimethyl-9β-azido-6a,7,8,8,10,10a-hexahydro-6H-dibenzo[b,d]pyran]
Ki (CB1 cannabinoid receptor): 0.8 nM
Ki (CB2 receptor): 0.9 nM

CCCCCCC1(c2cc(O)c3c(c2)OC(C)(C)[C@@H]2CC[C@@H](O)C[C@@H]32)SCCS1 [Compound 5, 6a,7,8,9,10,10a-Hexahydro-3-(2-hexyl-1,3-dithiolan-2-yl)-6,6-dimethyl-6H-dibenzo[b,d]pyran-1,9β-diol]
Ki (CB2 receptor): 13.9 nM

CCCCCCC(C)(C)c1cc(O)c2c(c1)OC(C)(C)[C@@H]1CC[C@@H](N=[N+]=[N-])C[C@@H]21 [Compound 7g, 1-Hydroxy-3-(1′,1′-dimethylheptyl)-6,6-dimethyl-9β-azido-6a,7,8,8,10,10a-hexahydro-6H-dibenzo[b,d]pyran]
Ki (CB1 cannabinoid receptor): 5 nM
Ki (CB2 receptor): 10.2 nM

CCCCCCC1(c2cc(O)c([C@@H]3CC(=O)[C@@H]4C[C@H]3C4(C)C)c(O)c2)CCCC1 [Compound 2a, (4R)-4-[4-(1′,1′-cyclopentylheptyl)-2,6-dihydroxyphenyl]-6,6-dimethyl-2-norpinanone]
Ki (CB1 cannabinoid receptor): 50.6 nM
Ki (CB2 receptor): 0.4 nM
melting point: 187 to 188 °C

CCCCCCC1(c2cc(O)c([C@@H]3CC(=O)C4CC3C4(C)C)c(O)c2)SCCS1 (stereo partly drawn) [Compound 2c, (4R)-4-[4-(2-hexyl-1,3-dithiolan-2-yl)-2,6-dihydroxyphenyl]-6,6-dimethyl-2-norpinanone]
Ki (CB1 cannabinoid receptor; [1]): 224 nM
Ki (CB2 receptor): 10.9 nM
melting point: 160 to 161 °C (dec.)

CC(C)(CCCCCCBr)c1cc(O)c2c(c1)OC(C)(C)[C@@H]1CCC(=O)C[C@@H]21 (relative stereo) [Compound 4d, (−)-trans-3-(7′-bromo-1′,1′-dimethylheptyl)-6,6a,7,8,10,10a-hexahydro-1-hydroxy-6,6-dimethyl-9H-dibenzo[b,d]pyran-9-one]
Ki (CB1 cannabinoid receptor): 1 nM
Ki (CB2 receptor): 11.8 nM

CCCCCCC1(c2cc(O)c3c(c2)OC(C)(C)[C@@H]2CCC(=O)C[C@@H]32)SCCS1 (single isomer, unassigned) [Compound 4c, (−)-trans-3-(2-hexyl-1,3-dithiolan-2-yl)-6,6a,7,8,10,10a-hexahydro-1-hydroxy-6,6-dimethyl-9H-dibenzo[b,d]pyran-9-one]
Ki (CB1 cannabinoid receptor): 11.7 nM
Ki (CB2 receptor): 2.3 nM
melting point: 62 to 64 °C (dec.)

CCCCCCC1(c2cc(O)c3c(c2)OC(C)(C)[C@@H]2CCC(=O)C[C@@H]32)CCCC1 [Compound 4a, (−)-trans-3-(1′,1′-cyclopentylheptyl)-6,6a,7,8,10,10a-hexahydro-1-hydroxy-6,6-dimethyl-9H-dibenzo[b,d]pyran-9-one]
Ki (CB1 cannabinoid receptor): 0.1 nM
Ki (CB2 receptor): 2.6 nM

CCCCC=CC1(c2cc(O)c([C@@H]3CC(=O)[C@@H]4C[C@H]3C4(C)C)c(O)c2)CCCC1 [Compound 2b, (4R)4-[4-(1′,1′-cyclopentylhept-2′-enyl)-2,6-dihydroxyphenyl]-6,6-dimethyl-2-norpinanone]
Ki (CB1 cannabinoid receptor): 74.5 nM
Ki (CB2 receptor): 0.4 nM
melting point: 167 to 168 °C
